Reference: BindingDB's records for PubMed 7791071 (Rhone-Poulenc Rorer Central Research, 1995)
Values joined by “and” are separate entries in the source; they are usually repeats but may differ in a detail not shown here. Identical values can stand only once.

Target: T1, Cholecystokinin (Sus scrofa, UniProt P01356)
T1 sequence (P01356 whole entry): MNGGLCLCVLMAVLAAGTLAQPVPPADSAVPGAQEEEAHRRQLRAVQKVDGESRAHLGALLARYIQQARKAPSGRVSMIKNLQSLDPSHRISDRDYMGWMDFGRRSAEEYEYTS

## CN1C(=O)[C@@H](NC(=O)c2cc3ccccc3[nH]2)N=C(c2ccccc2)c2ccccc21 [1H-Indole-2-carboxylic acid (1-methyl-2-oxo-5-phenyl-2,3-dihydro-1H-benzo[e][1,4]diazepin-3-yl)-amide: 0.1C4H10O. 0.15CH2Cl2]
  Ki: 141 nM and 87 nM

## O=C(NC(Cc1c[nH]c2ccccc12)C(=O)O)c1ccc(Cl)cc1 (stereo unspecified)
  Ki: > 10000 nM

## CC(Cc1c[nH]c2ccccc12)(NC(=O)OC1C2CC3CC(C2)CC1C3)C(=O)NCC(NC(=O)CCC(=O)O)c1ccccc1 (stereo unspecified) [NSC_108186]
  Ki: 0.46 nM and 2 nM

## CSCC[C@H](NC(=O)[C@H](Cc1ccc(OS(=O)(=O)O)cc1)NC(=O)[C@@H](N)CC(=O)O)C(=O)NCC(=O)N[C@@H](Cc1c[nH]c2ccccc12)C(=O)N[C@@H](CCSC)C(=O)N[C@@H](CC(=O)O)C(=O)N[C@@H](Cc1ccccc1)C(N)=O [(3S)-3-[(2S)-2-[(2S)-2-{2-[(2S)-2-[(2S)-2-[(3S)-3-amino-3-formamidopropanoic acid]-3-[4-(sulfooxy)phenyl]propanamido]-4-(methylsulfanyl)butanamido]acetamido}-3-(1H-indol-3-yl)propanamido]-4-(methylsulfanyl)butanamido]-3-{[(1S)-1-carbamoyl-2-phenylethyl]carbamoyl}propanoic acid]
  Ki: 0.43 nM and 1.1 nM

## Cc1cccc(NC(=O)N[C@H]2N=C(c3ccccc3)c3ccccc3N(C)C2=O)c1
  Ki: 7.2 nM and 4.8 nM

## CSCC[C@H](NC(=O)[C@H](Cc1c[nH]c2ccccc12)NC(=O)CCNC(=O)OC(C)(C)C)C(=O)N[C@@H](CC(=O)O)C(=O)N[C@@H](Cc1ccccc1)C(N)=O [CAS_5534-95-2]
  Ki: 3.3 nM and 6 nM
